Reference: PMC6240096, “A hPSC-based platform to discover gene-environment interactions that impact human β-cell and dopamine neuron survival” (Nature Communications, 2018)

Legend:
HuC/D+ neurons = assay: Inhibition curve / survival of hESC-derived neurons; format: cell-based, human
Protocol: (§1) hESCs-derived INS^+ cells, MSCs[43], neurons, and hepatocytes[44] were derived based on the reported protocols and re-plated on 96-well plates with Accutase digestion. Cardiomyocytes (CMs) were differentiated from H9-MYH6: mCherry reporter line, based on the reported protocol. After overnight incubation, cells were treated with DMSO or different doses of hit compounds for 4 days. After fixation, the cells were stained with markers for each cell type. DAPI was used to stain cell nuclei. Plates were analyzed by ImageXpress^MICRO Automated High-Content Analysis System.
(§2) Supplementary Figure 4. Assessment of the toxic effect of propargite on different type […]
(§3) (a) Flow cytometry char acterization of CD29+ and CD73+ mesenchymal stem cells (MSCs) derived from H1 hESCs. (b-c) microscope image (b) and flow cytometry (c) characterization of cardiomyocytes expressing MYH6+ derived from a MYH6:mCherry reporter hESC line. (d-e) Immunocytochemistry characterization of MAP2+/TUJ1+ and HuC/D+/MAP2+ neurons (d) and A1AT+/ASGPR1+ hepatocytes (e) derived from H1 hESCs. All the cells were counterstained by DAPI (blue). Scale bars, 100 µm. (f) Inhibition curve of propargite on pancreatic β-like cells, MSCs, cardiomyocytes, neurons, and hepatocytes derived from hESCs, and BJ-fibroblasts (n=3). Values presented as mean±S.D. […]

BJ-fibroblasts = assay: Inhibition curve on BJ-fibroblasts; format: cell-based, human; details: cell survival rate, 4 days, n=3
Protocol: as §1, §2, §3

hESC-derived INS+ cells = assay: Ki67 proliferation staining of hESC-derived INS+ cells; format: cell-based, human; details: 1.6 µM propargite vs DMSO
Protocol: Cells were fixed with 10% (v/v) formalin for 20 min at room temperature (RT) and blocked in a solution of Mg^2+- and Ca^2+-free PBS containing 5% horse serum and 0.3% Triton-X for 1 h at room temperature and followed by incubation with primary antibody at 4 °C overnight. The following primary antibodies and dilutions have been used in this study: goat anti-SOX17 (1:500, R&D system, AF1924), rabbit anti-FOXA2 (1:500, Upstate, 07-633), goat anti-PDX1 (1:500, R&D system, AF2419), mouse anti-NKX6.1 (1:100; BCBC, Ab2024), guinea pig anti-INS (1:1000, Dako, A0564), guinea pig anti-GLUCAGON (1:500, Linco, 4031), mouse anti-Ki67 (1:100, Life technologies, 556003), mouse anti-AMYLASE (1:100, Santa Cruz, sc-46657), rabbit anti-Active Caspase-3 (1:500, BD Bioscience, 559565), mouse anti-Troponin T (1:500, Thermo Scientific, MA5-12960), mouse anti-Actin, Cardiac (1:300, Sigma, A9357), rabbit anti-TUJ1 (1:500, Covance, MRB-435P), Chicken anti-MAP2 (1:1000, Abcam, Ab5392), mouse anti-HuC/D (1:500, Invitrogen, A-21271), mouse anti-MAP2 (1:1500, Sigma, M1406), rabbit anti-TH (1:500, Pel freeze, P40101-0), rat-anti-CTIP2 (1:500, Abcam, ab18465), goat anti-FOXA2 (1:200, R&D, 463783). Donkey anti-guinea pig, mouse, goat, rabbit or chicken secondary antibodies conjugated with Alexa-Fluor-488, Alexa-Fluor-594 or Alexa-Fluor-647 fluorophore (1:500, Life technologies) were used. […]

INS-GFP+ cells = assay: RNA-seq of INS-GFP+ cells; format: cell-based, human; details: 1.6 µM propargite-treated INS-GFP+ cells
Excerpt: The INS-GFP^+ cells were sorted and RNA from the sorted cells was extracted with Absolutely RNA Nanoprep kit (Agilent Technologies, 400753). The RNA quality was validated with a bioanalyzer (Agilent). The cDNA libraries were synthesized using the TruSeq RNA Sample Preparation kit (Illumina) and sequenced in single-read with the HiSeq2000/1000 sequencer (Illumina) at Weill Cornell Genomics Resources Core Facility. The reads were aligned to the human hg19 reference genome with Tophat2[48]. Gene expression data were analyzed with Cufflinks[49]. To generate heat maps displaying the differential gene expression patterns of different samples, the RPKM values were normalized per gene over all samples. The heat maps were then generated by Heatmap.2 in the R plots package. David functional annotation tool[50] was used for gene ontology analysis and Ingenuity Pathway Analysis tool was used for pathway analysis.

MIN6 cells = assay: Intracellular ROS detection; details: propargite-treated MIN6 cells
Protocol: Total intracellular ROS were detected using DCFDA-Cellular Reactive Oxygen Species Detection Assay Kit (Abcam, ab113851).
Species detection for different doses of propargite-treated MIN6 cells (n=3). 50 µM TBHP
was used as a positive control.

## 2-(4-tert-butylphenoxy)-cyclohexyl prop-2-yne-1-sulfonate [propargite]
HuC/D+ neurons; 1.6 μM propargite
  susceptibility of HuC/D+ neurons: highly susceptible
HuC/D+ neurons; cell survival rate, 4 days, n=3
  IC50: 1.46 µM
BJ-fibroblasts
  IC50: 3 µM
hESC-derived INS+ cells
  percentage of Ki67+/INS+ cells: did not affect
INS-GFP+ cells
  fold-change of upregulated DNA damage genes (DDIT3, GADD45A): > 3
MIN6 cells
  reactive oxygen species (ROS): did not find any increase
